Assay [1] deals with A549 human lung adenocarcinoma cell line. As to the kind of experiment: MTT assay. It counts as cell-based. Conditions: Homo sapiens, A549. The procedure:
(§1) The anticancer effects of compounds 1–10 on A549 human lung adenocarcinoma (ATCC® CCL-185™), HepG2 human hepatocellular carcinoma (ATCC® HB-8065™), and C6 rat glioma (ATCC® CCL107™) cell lines were assessed using 3-(4,5-Dimethylthiazol-2-yl)-2,5-diphenyltetrazolium bromide (MTT) assay, whereas the selectivity of compounds 1–10 was tested using NIH/3T3 mouse embryonic fibroblast cell line (ATCC® CRL-1658™, London, UK). All cell lines were incubated according to the supplier’s recommendations. The cells were seeded as 1 × 10^4 cells into each well of the 96-well plates. MTT assay was performed as previously described. The compounds were tested between the concentrations equal to 1 mM and 0.000316 mM (1.0, 0.316, 0.10, 0.0316, 0.01, 0.00316, 0.001, 0.000316 mM). Stock solutions of compounds were prepared in dimethyl sulfoxide (DMSO) and further dilutions were made with fresh culture medium. The final DMSO concentration was under 1% [34] and cisplatin was used as a positive control. Inhibition % was calculated for each concentration according to the formula below, and IC50 values were determined by plotting a dose–response curve of inhibition % versus compound concentrations tested. All experiments were performed in quadruplicate.Inhibition % = 100 − [(ODtest compound − ODblank/ODsolvent control − ODblank)] × 100(1)
For orientation: Tetrazolium assays rely on reduction of a dye to a coloured formazan, in cell work by metabolically active cells.

Assay [2] relates to C6 rat glioma cell line. As to the kind of experiment: MTT assay. The assay is classed as cell-based. Conditions: Rattus norvegicus, C6. As for the experimental part: as §1
Assay [3] has as its system NIH/3T3 mouse embryonic fibroblast cell line. In words: MTT assay. The following applies: Mus musculus, NIH3T3, healthy cells for selectivity. The assay is classed as cell-based. The procedure:
as §1

The test system of assay [4] is HepG2 human hepatocellular carcinoma cell line. As to the kind of experiment: MTT assay. The assay is classed as cell-based. The following applies: Homo sapiens, HepG2. As for the experimental part:
as §1

Assay [5] has as its system C. glabrata (ATCC 90030). As to the kind of experiment: Microdilution susceptibility assay (MIC). The assay is classed as cell-based, Candida glabrata. Conditions: Nakaseomyces glabratus, ATCC90030. The procedure:
Compounds 1–10 were screened for their antimicrobial activity against gram-negative bacteria, gram-positive bacteria, and yeasts, listed in Table 1. Bacteria were grown in Mueller-Hinton Broth and yeasts were grown in Sabouraud Dextrose Broth (SDB) during experiments. Overnight cultures were prepared routinely by subculturing of stock culture onto Mueller-Hinton Agar for bacteria and Sabouraud Dextrose Agar for yeasts.
Microdilution susceptibility assay was used for the determination of antibacterial and anticandidal efficacy of compounds 1–10. Chloramphenicol and ketoconazole were used as positive controls for bacteria and yeasts, respectively. All experiments were designed according to the Clinical Laboratory Standards Institute (CLSI). All chemicals were dissolved in dimethyl sulfoxide (DMSO) to obtain stock solution (10 mg/mL). Two-fold serial dilutions (800, 400, 200...0.78 µg/mL) of the compounds were prepared from stock solutions with dH2O. 100 µL of each solution was transferred to 96-well microtiter plates and 100 µL of 10^6 CFU/mL of bacteria and 2 × 10^3 of CFU/mL yeast were added to related wells. As negative controls, wells including microorganisms without agents and wells including agents without microorganisms were used. The plates were kept at 35 °C for 18–20 h and the growth was determined with resazurin (20 mg/mL). Assays were carried out in triplicate.
For orientation: In broth dilution the organism is exposed to a series of concentrations in liquid medium.

Assay [6] has as its system C. krusei cells. As to the kind of experiment: Flow cytometry live/dead analysis (TO/PI). It counts as cell-based, Candida krusei. Conditions: 25 µg/mL, 4 h. From the text: In order to investigate the effects of compounds 7 and 9 on the integrity of C. krusei cells, flow cytometry was used with BD cell viability kits. Live cells are impermeable to dyes such as PI since they have intact membranes. TO is a permeant dye and enters live and dead cells to varying degrees. The fluorescent signal from TO in viable cells allows their enumeration, even when debris in the cell preparation contaminates a scatter gate around the cells. Thus, the combination of these two dyes provides a rapid and reliable method for discriminating live and dead eukaryotic cells, including yeasts. All steps were performed according to manufacturers’ recommendations. Briefly, Candida cells were cultured at 35 °C in SDB until late log phase. The cells were centrifuged and washed with phosphate-buffered saline (PBS) at pH = 7.0. Suspensions containing 2 × 10^3 cells/mL were incubated with compounds 7 and 9, and ketoconazole as a reference drug, for 4 h at 35 °C, with shaking (200 r.p.m.). […] Suspensions of treated and untreated cells were incubated for 30 min in the presence of 2 µL of PI and 2 µL of TO, in the dark, at room temperature. The cell suspensions were analysed in a BD Accuri C6 flow cytometer (Becton-Dickinson, Mansfield, MA, USA). The cell scattergram (forward scatter: FS, side scatter: SS), the autofluorescence (without fluorocrome), and the intensity of fluorescence at FL1 (green fluorescence, 525 nm) and FL2 (red fluorescence, 620 nm) were recorded using a logarithmic scale.

Assay [7] concerns C. albicans. In words: ATP luminescence microbial cell viability assay. The assay is classed as cell-based, Candida albicans. Conditions: 24 h treatment, result in words. The procedure:
(§2) A model from BioTek Instruments Inc. combined with a BacTiter-Glo^TM Microbial Cell Viability assay (Promega Corp., Madison, WI, USA) was used to provide a sensitive and rapid method for determining the number of viable microbial cells in culture based on quantitation of the ATP present. […] After incubation, cultures were added into the wells (final concentration of bacteria was 5 × 10^5 CFU/mL and 2.5 × 10^6 CFU/mL for yeasts). After adding the BacTiter reagent, incubation time for bacteria and yeasts was 5 min and 15 min, respectively.
The assay generates a “glow-type” luminescent signal, produced by the luciferase reaction. Briefly, after chemicals and strains were incubated for 24 h, 100 µL of the culture was taken from each well and mixed with the same volume of the BacTiter-Glo™ reagent in a white, opaque-walled microtiter plate. Control wells containing medium without cells were prepared to obtain a value for background luminescence. Cells without compound were used as an ATP-positive control. The microplates were further incubated under agitation for 7 min. Bioluminescence was recorded in a multi-detection microplate reader (BioTek Synergy 2 Multi-Mode Microplate Reader, BioTek Instruments, Winooski, VT, USA). […] Experiments were performed in triplicate and each sample was measured in four replicates.

The subject of assay [8] is C. glabrata. In words: ATP luminescence microbial cell viability assay. It counts as cell-based, Candida glabrata. Conditions: 24 h treatment, result in words. As for the experimental part: as §2
(§3) The assay generates a “glow-type” luminescent signal, produced by the luciferase reaction. Briefly, after chemicals and strains were incubated for 24 h, 100 µL of the culture was taken from each well and mixed with the same volume of the BacTiter-Glo™ reagent in a white, opaque-walled microtiter plate. Control wells containing medium without cells were prepared to obtain a value for background luminescence. Cells without compound were used as an ATP-positive control. The microplates were further incubated under agitation for 7 min. Bioluminescence was recorded in a multi-detection microplate reader (BioTek Synergy 2 Multi-Mode Microplate Reader, BioTek Instruments, Winooski, VT, USA). In Figure 3, results were given as percentage of untreated control, which is set at 100%. Experiments were performed in triplicate and each sample was measured in four replicates.

For assay [9], the system named is E. faecalis (ATCC 29212). As to the kind of experiment: ATP luminescence microbial cell viability assay. The assay is classed as cell-based, Enterococcus faecalis. The following applies: 24 h treatment, result in words. As for the experimental part: as §2, §3

≈ marks a conversion by molar mass, not a printed value.

In general, IC50 refers to the concentration needed to halve the response being measured. A higher IC50 goes with weaker potency in that assay. As usually defined, the MIC is the least concentration at which growth counts as inhibited.

As to `Cn1cccc1C(=O)C=Cc1ccc(-c2ccc(Cl)cc2)o1` [Compound 7, 1-(1-Methyl-1H-pyrrol-2-yl)-3-(5-(4-chlorophenyl)furan-2-yl)prop-2-en-1-one], the half-maximal inhibitory concentration (IC50) in assay [1] was found to be 98 µg/mL (≈ 314 µM); in [2], 311 µg/mL (≈ 998 µM); in assay [3], 40 µg/mL (≈ 128 µM); in assay [4], 23 µg/mL (≈ 73.8 µM). The compound also came in with an MIC in assay [5] of 100 µg/mL (≈ 321 µM). The “Dead Cell %” value in assay [6] was 20.0%. Besides, the “Live Cell %” value in assay [6] amounted to 79.6%. The entries for the “antifungal activity in ATP bioluminescence assay” value in assay [7] and in [8] were “no statistically significant effects” and “antifungal activity close to ketoconazole”, respectively. Also, the “antimicrobial activity in ATP bioluminescence assay” value in assay [9] is “sensitive”.

For the compound `Cn1cccc1C(=O)C=Cc1ccc(-c2cc(Cl)ccc2Cl)o1` [Compound 9, 1-(1-Methyl-1H-pyrrol-2-yl)-3-(5-(2,5-dichlorophenyl)furan-2-yl)prop-2-en-1-one], the IC50 was over 346 µg/mL in assay [1], 109 µg/mL (≈ 315 µM) in assay [2], 109 µg/mL (≈ 315 µM) in [3] and 101 µg/mL (≈ 292 µM) in assay [4]. The minimal inhibitory concentration (MIC) in [5] turned out to be 100 µg/mL (≈ 289 µM). The “Dead Cell %” value in [6] is 15.9%. In addition, the “Live Cell %” value in [6] worked out at 83.9%.

(Values after article PMC6149822, “A New Series of Pyrrole-Based Chalcones: Synthesis and Evaluation of Antimicrobial Activity, Cytotoxicity, and Genotoxicity” (Molecules : A Journal of Synthetic Chemistry and Natural …, 2017).)
